Article PMC12212144, “The VanS sensor histidine kinase from type-B vancomycin-resistant enterococci recognizes vancomycin directly” (The Journal of Biological Chemistry, 2025)

Key:
[1] = biological target: T1, tandem VanSB periplasmic sensor domain (Enterococcus faecalis, UniProt Q47745); assay: fluorescence anisotropy; format: binding; set-up: two copies of periplasmic domain Q31-G132 in one polypeptide joined by GSGGS linker; expressed in E. coli as TEV-cleavable 6xHis-MBP fusion, tag removed; conditions: labelled compound, 100 nM; 20 mM Tris pH 7.5, 100 mM NaCl, 0.01% Triton X-100, room temperature
T1 sequence (Q47745 31-132): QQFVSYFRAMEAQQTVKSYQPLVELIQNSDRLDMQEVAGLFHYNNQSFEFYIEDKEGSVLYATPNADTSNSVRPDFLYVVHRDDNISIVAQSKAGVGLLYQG

[2] = biological target: full-length VanSB (in nanodiscs) (Enterococcus faecalis, UniProt Q47745); assay: biochemical
full-length VanSB (in nanodiscs), sequence (Q47745 whole entry, the tested form may be a part): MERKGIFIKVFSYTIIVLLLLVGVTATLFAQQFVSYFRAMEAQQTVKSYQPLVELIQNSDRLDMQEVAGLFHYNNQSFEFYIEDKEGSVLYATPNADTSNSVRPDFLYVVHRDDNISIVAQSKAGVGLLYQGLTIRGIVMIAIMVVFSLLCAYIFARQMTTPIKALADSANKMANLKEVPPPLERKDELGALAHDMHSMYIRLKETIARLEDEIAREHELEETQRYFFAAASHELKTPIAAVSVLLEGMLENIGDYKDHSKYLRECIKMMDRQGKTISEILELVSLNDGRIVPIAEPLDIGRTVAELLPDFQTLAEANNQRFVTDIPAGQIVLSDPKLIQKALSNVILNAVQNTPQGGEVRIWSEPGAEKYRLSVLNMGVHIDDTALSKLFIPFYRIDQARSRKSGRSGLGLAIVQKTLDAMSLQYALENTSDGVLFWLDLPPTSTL

[3] = biological target: T2, single-copy VanSB periplasmic sensor domain (Enterococcus faecalis, UniProt Q47745); assay: biochemical
T2 sequence (Q47745 31-132): as the sequence (Q47745 31-132) above

[4] = biological target: T1, tandem VanSB periplasmic sensor domain; assay: biochemical
[5] = biological target: T3, cVanSB (cytosolic domain of VanSB) (Enterococcus faecalis, UniProt Q47745); assay: autophosphorylation with ATPγS, anti-thiophosphohistidine (PNBM) Western blot; format: biochemical; conditions: 1 mM ATPγS, 10 mM MgCl2, pH 7.4; not affected by vancomycin
T3 construct: cytosolic domain M159-L447, C-terminal His6 (pETCH), expressed in E. coli
T3 sequence (Q47745 159-447): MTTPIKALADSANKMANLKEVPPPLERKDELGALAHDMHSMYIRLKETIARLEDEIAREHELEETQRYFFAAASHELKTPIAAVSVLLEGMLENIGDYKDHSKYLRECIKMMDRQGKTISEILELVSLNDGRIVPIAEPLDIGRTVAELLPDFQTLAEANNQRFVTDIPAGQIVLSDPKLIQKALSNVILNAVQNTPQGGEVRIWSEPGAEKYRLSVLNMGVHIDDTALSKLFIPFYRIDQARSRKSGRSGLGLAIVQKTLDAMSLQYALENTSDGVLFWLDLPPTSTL

[6] = biological target: T2, single-copy VanSB periplasmic sensor domain; assay: fluorescence anisotropy; format: binding; set-up: periplasmic sensor domain Q31-G132, single copy; expressed in E. coli as TEV-cleavable 6xHis-MBP fusion, tag removed; conditions: labelled compound, 100 nM; 20 mM Tris pH 7.5, 100 mM NaCl, 0.01% Triton X-100, room temperature

**Q.** For AF488-vancomycin, which Kd [1] is on record?
**A.** 11 µM

**Q.** With `CN[C@H](CC(C)C)C(=O)N[C@H]1C(=O)N[C@@H](CC(N)=O)C(=O)N[C@H]2C(=O)N[C@H]3C(=O)N[C@H](C(=O)N[C@H](C(=O)O)c4cc(O)cc(O)c4-c4cc3ccc4O)[C@H](O)c3ccc(c(Cl)c3)Oc3cc2cc(c3O[C@@H]2O[C@H](CO)[C@@H](O)[C@H](O)[C@H]2O[C@H]2C[C@](C)(N)[C@H](O)[C@H](C)O2)Oc2ccc(cc2Cl)[C@H]1O` [vancomycin] as the compound, how does the EC50 [2] read?
**A.** 43 ± 12.5 µM

**Q.** What about the Kd [3] of the same compound?
**A.** 20.7 µM

**Q.** And the Kd [4]?
**A.** 11 µM

**Q.** For `Nc1ncnc2c1ncn2[C@@H]1O[C@H](COP(=O)(O)OP(=O)(O)OP(O)(O)=S)[C@@H](O)[C@H]1O` [ATPγS], which “autophosphorylation with ATPγS, anti-thiophosphohistidine (PNBM) Western blot” value [5] is on record?
**A.** autophosphorylation time course for full-length VanSB (reconstituted in nanodiscs) and its cytosolic domain

**Q.** Which Kd [6] does the source give for `CN[C@H](CC(C)C)C(=O)N[C@H]1C(=O)N[C@@H](CC(N)=O)C(=O)N[C@H]2C(=O)N[C@H]3C(=O)N[C@H](C(=O)N[C@H](C(=O)O)c4cc(O)cc(O)c4-c4cc3ccc4O)[C@H](O)c3ccc(c(Cl)c3)Oc3cc2cc(c3O[C@@H]2O[C@H](CO)[C@@H](O)[C@H](O)[C@H]2O[C@H]2C[C@](C)(NC(=O)CCc3ccc4n3[B-](F)(F)[N+]3=C(C)C=C(C)C3=C4)[C@H](O)[C@H](C)O2)Oc2ccc(cc2Cl)[C@H]1O` [BODIPY-FL-vancomycin] here?
**A.** 20.3 µM

**Q.** And the Kd [1]?
**A.** 10.7 µM
